target: T1, DPP-IV (Homo sapiens, UniProt P27487); experiment: Inhibition of DPP-IV peptidase activity, continuous fluorimetric assay (Gly-Pro-AMC cleavage); format: biochemical, human and porcine; settings: 50 pM DPP-IV, 16 µM substrate Gly-Pro-AMC, pH 7.4, 25 °C, values grouped in 2 classes
T1 construct: Soluble human DPP-IV lacking the transmembrane anchor (Gly31-Pro766); Pre-Pro-alpha-mating factor leader (secretion fusion) (N, cleaved yes); made in house
Protocol: Inhibition of DPP-IV peptidase activity was monitored with a continuous fluorimetric assay. This assay is based on the cleavage of the substrate Gly-Pro-AMC (Bachem) by DPP-IV, releasing free AMC. The assay is carried out in 96-well microtiterplates. In a total volume of 100 µL, compounds are preincubated with 50 pM DPP-IV employing a buffer containing 10mM Hepes, 150mM NaCl, 0.005% Tween 20 (pH 7.4). The reaction is started by the addition of 16 µM substrate and the fluorescence of liberated AMC is detected for 10 minutes at 25 °C with a fluorescence reader (BMG-Fluostar; BMG-Technologies) using an excitation wavelength of 370 nm and an emission wavelength of 450 nm. The final concentration of DMSO is 1 %. The inhibitory potential of the compounds were determined.
Soluble human DPP-IV lacking the transmembrane anchor (Gly31-Pro766) was expressed in a recombinant YEAST-strain as Pre-Pro-alpha-mating fusion. The secreted product (rhuDPP-IV-Gly31-Pro766) was purified from fermentation broth (>90% purity).
In table 1 are listed the IC50 values for inhibition of DPP-IV peptidase activity determined in assays as described above. The IC50 values were grouped in 2 classes: a ≤ 100 nM; b ≥101 nM and ≤ 1000 nM.

T1 sequence (P27487 31-766): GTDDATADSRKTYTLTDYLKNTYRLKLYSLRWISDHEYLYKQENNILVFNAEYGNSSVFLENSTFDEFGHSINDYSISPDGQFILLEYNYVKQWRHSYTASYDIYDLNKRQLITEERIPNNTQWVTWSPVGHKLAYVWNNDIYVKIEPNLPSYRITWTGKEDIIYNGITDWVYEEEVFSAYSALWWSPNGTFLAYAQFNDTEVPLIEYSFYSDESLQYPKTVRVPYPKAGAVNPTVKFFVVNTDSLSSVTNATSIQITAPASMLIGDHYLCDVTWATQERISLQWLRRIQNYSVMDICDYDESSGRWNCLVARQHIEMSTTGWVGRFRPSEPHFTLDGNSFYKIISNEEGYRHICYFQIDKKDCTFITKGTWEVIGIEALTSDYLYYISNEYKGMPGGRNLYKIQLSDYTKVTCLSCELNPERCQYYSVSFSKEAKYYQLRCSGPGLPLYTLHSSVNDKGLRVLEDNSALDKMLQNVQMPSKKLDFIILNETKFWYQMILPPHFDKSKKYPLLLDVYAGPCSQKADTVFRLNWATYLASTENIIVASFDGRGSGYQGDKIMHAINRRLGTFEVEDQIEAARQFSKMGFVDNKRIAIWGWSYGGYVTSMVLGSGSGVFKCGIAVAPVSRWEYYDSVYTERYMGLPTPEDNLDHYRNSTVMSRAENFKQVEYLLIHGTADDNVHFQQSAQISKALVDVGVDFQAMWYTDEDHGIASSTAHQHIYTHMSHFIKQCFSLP

Row | Structure (SMILES) | IC50 [nM]
1 | Cc1ncc(C(=O)N2CCC([C@H](N)Cc3cc(F)c(F)cc3F)CC2)c(C(F)(F)F)n1 [Example 6] | ≤ 100
2 | Cc1nc(C(F)(F)F)ncc1C(=O)N1CCC([C@H](N)Cc2cc(F)c(F)cc2F)CC1 [Example 2, {4-[(R)-1-Amino-2-(2,4,5-trifluoro-phenyl)-ethyl]-piperidin-1-yl}-(4-methyl-2-trifluoromethylpyrimidin-5-yl)-methanone] | ≤ 100
3 | Cc1ncc(C(=O)N2CCC([C@H](N)Cc3cc(F)c(F)cc3F)CC2)c(C)n1 [Example 1, {4-[(R)-1-Amino-2-(2,4,5-trifluoro-phenyl)-ethyl]-piperidin-1-yl}-(2,4-dimethyl-pyrimidin-5-yl)-methanone] | ≤ 100
4 | N[C@H](Cc1cc(F)c(F)cc1F)C1CCN(C(=O)c2cnc(C(F)(F)F)nc2C2CC2)CC1 [Example 4] | ≤ 100
5 | Cc1nc(N)ncc1C(=O)N1CCC([C@H](N)Cc2cc(F)c(F)cc2F)CC1 [Example 7] | ≤ 100

Other lines, results leading:

Row | IC50 [nM] | Structure (SMILES)
6 | ≤ 100 | N[C@H](Cc1cc(F)c(F)cc1F)C1CCN(C(=O)c2cnc(-c3ccccn3)nc2C(F)(F)F)CC1 [Example 8]
7 | ≤ 100 | Cc1nc(-c2ccccc2)ncc1C(=O)N1CCC([C@H](N)Cc2cc(F)c(F)cc2F)CC1 [Example 9]
8 | ≤ 100 | CC(C)c1ncc(C(=O)N2CCC([C@H](N)Cc3cc(F)c(F)cc3F)CC2)c(C2CC2)n1 [Example 5]

— EP2019099A1, “Dpp-IV inhibitors” (Santhera Pharmaceuticals (Schweiz) AG, priority 2007, dated 2009)
